{
  "source": "paper PMC3174345",
  "about": "(Arthritis and rheumatism, 2011)",
  "key": {"DR0401-IE mice": {"tested_on": "DR0401-IE mice", "conditions": "mouse, in vivo"}, "[1]": {"tested_on": "splenocytes of DR0401-IE mice", "assay": "3H-thymidine proliferation recall assay of splenocytes from immunized mice", "format": "cell-based, mouse"}},
  "data": [
    {"substance": "cit-vim59-71: shorter citrullinated vimentin peptide, aa 59-71 (GVYATRSSAVRLR; citrullinated; UniProt P08670 59-71, looked up, fragment)", "values": [
      {"measurement": "mice developing signs of ankle swelling or polyarthritis", "setting": "DR0401-IE mice", "result": "none"},
      {"measurement": "proliferative recall response at 13 weeks", "setting": "[1]; immunized DR0401-IE mice harvested at week 13 (supplemental fig. 1)", "result": "strong proliferative recall response"},
      {"measurement": "immunodominant region in in vitro restimulation", "setting": "[1]; mice immunized with cit-vim59-78, challenge with short peptides at 5 μg/ml, n=13", "result": "immunologically dominant region"}
    ]}
  ]
}
